pIC50: −log10 of the molar value. Counter-ions that a name gives are not always drawn.

This note sets out measurements from US8034810B2, “Arylsulfonamido-substituted hydroxamic acid derivatives” (Novartis AG, priority 1999, dated 2011).

One test has as its target T1, MMP1 (collagenase 1) (Homo sapiens, UniProt P03956).
T1 construct: made in house; host or cells: mouse C127 cells, vector pBPV-MMT, secreted into culture medium
T1 sequence (P03956 100-469): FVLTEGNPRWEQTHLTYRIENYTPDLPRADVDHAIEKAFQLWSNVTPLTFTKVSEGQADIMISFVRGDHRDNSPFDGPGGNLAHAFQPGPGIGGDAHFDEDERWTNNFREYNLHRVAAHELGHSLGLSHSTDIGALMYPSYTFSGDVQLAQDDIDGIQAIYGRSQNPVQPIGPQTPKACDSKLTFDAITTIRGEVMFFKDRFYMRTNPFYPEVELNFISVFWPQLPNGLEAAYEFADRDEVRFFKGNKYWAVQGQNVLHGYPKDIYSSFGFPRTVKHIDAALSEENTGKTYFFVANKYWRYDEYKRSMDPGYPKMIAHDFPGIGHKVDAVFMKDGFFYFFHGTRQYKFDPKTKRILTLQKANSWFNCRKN
The test can be described thus: In vitro inhibition of MMP1 (collagenase 1), fluorogenic peptide substrate. In kind it is biochemical. To be noted: APMA-activated recombinant human collagenase; substrate 10 μM; 37° C. How it is done:
The inhibitory activities of compounds of formula I on MT1-MMP, MMP1 (collagenase 1) and MMP2 (gelatinase A) can be determined as follows:
Stock solutions of substrate (MCA-Pro-Leu-Gly-Leu-Dpa-Ala-Arg-NH2, Knight, C. G., Willenbrock, F., Murphy, G., A novel coumarin-labelled peptide for sensitive continuous assays of the matrix metalloproteinases, FEBS lett., 296, 263-266, (1992)), are prepared in 100% DMSO at a concentration 1.0 mM. Stock solutions of inhibitors are prepared in 100% DMSO. The inhibitor is diluted into the assays from a solution in 100% DMSO, and controls substitute an equal volume of DMSO so that the final DMSO concentration from inhibitor and substrate dilutions in all assays is 6.0%. Assays are performed in assay buffer (150 mM NaCl, 10 mM CaCl2, 50 mM Tris-Cl pH7.5, 0.05% Brij-35) containing 6.0% DMSO once the substrate and inhibitor are diluted into it. The substrate concentration used in the assays is 10 μM. The test is carried out at 37° C. The fluorescence changes are monitored using an excitation wavelength of 320 nm and an emission wavelength of […]. The reaction mixture is added in duplicate to appropriate wells of a 96 well microfluor plate. The reaction mixture is preincubated with the inhibitor for 30 min, the reaction is started by the addition of MMP enzyme and the fluorescence intensity is measured for 10 min. A time point that is on a linear part of the curve is chosen to determine the activity. The inhibition results are expressed as the inhibitor concentrations that produced 50% inhibition (IC50) of the activity in the control (non-inhibited) reaction. In this test, the compounds of the formula I and their pharmacologically acceptable salts have an inhibiting concentration IC50 [μmol/litre] of 0.0001 and 0.030, usually of 0.0002 to 0.010, for MMP2 and an inhibiting concentration IC50 [μmol/litre] of 0.0005 and 0.125, usually of 0.001 to 0.05, for MT1-MMP.
Plasmid: The cDNA for human collagenase is generated by PCR of cDNA derived from RNA isolated from human U937 cells (ATCC# CRL-2367). The primers, used to generate this cDNA, are […] and AAGGCGGCCGCA […], corresponding to nucleotides 58 to 1526 of the reported cDNA sequence, GenBank accession number X05231. The resulting cDNA fragment is subcloned into Not I site of a mammalian expression vector pBPV-MMT (Matthias, P. et al., J. Mol. Biol. 1986, 187(4):557-68).
C127 cells (ATCC-mouse mammary tumor cell line) are grown in Dulbecco's Modified Essential Medium supplemented with 10% heat inactivated fetal bovine serum and 1× antibiotic-antimycotic solution at 37° C. in a humidified CO2 incubator. Cells seeded at 8×10^5 in 100 mm dishes are transfected using a calcium phosphate precipitation method. 5 h prior to transfection, medium is replaced with fresh medium. Each dish is transfected with 15 μg of the expression vector. Cells are washed twice with PBS 16-18 h after transfection and are incubated in growth medium for an additional 48 h. Clones are then selected by incubation with the Neomycin related antibiotic G418 at a concentration of 400 μg/ml. Media from selected clones are analyzed for collagenase expression by an enzymatic assay. Expression and Purification: 16 liters of culture medium are concentrated to 1.6 liters and the enzyme is isolated by the procedures described by Wilhelm et al. (Proc. Natl. Acad. Sci. (USA). 1987; 84: 6725-29). The final product is further purified on a Superose G-75 (Pharmacia/LKB, Piscataway, N.J.) gel filtration column equilibrated in the assay buffer containing 0.15 M NaCl. Enzyme is pooled and stored in aliquots at −70° C. Recombinant procollagenase (43-45 kDa) is activated with 1 mM APMA (Aminophenylmercuric acetate, ICN Pharmaceuticals) for 2 h at 37° C., and the APMA is removed by extensive dialysis against the assay buffer containing 0.15M NaCl. The activated enzyme (˜36-kDa) is stored frozen at −70° C. until use.
As usually defined, the pIC50 is the negative decadic logarithm of the IC50, by convention in mol/L. Regarding “2-[(Cyclopropylmethoxy-benzenesulfonyl)-(4-[1,2,4]triazol-1-yl-benzyl)-amino]-N-hydroxyacetamide-hydrochloride salt [Example 82b]”, the pIC50 was 6.02.
As to `O=C(CN(Cc1ccc(-n2cncn2)cc1)S(=O)(=O)c1ccc(OCc2ccoc2)cc1)NO` [Example 82c], the pIC50 is 5.29.
Regarding `C=CCCOc1ccc(S(=O)(=O)N(CC(=O)NO)Cc2ccc(-n3ccnc3)cc2)cc1` [Example 80, 2-[(4-But-3-enyloxy-benzenesulfonyl)-(4-imidazol-1-yl-benzyl)-amino]-N-hydroxy-acetamide-hydrochloride], the pIC50 is 5.58.
On the same count and under the same terms, the same measure for `C#CCOc1ccc(S(=O)(=O)N(CC(=O)NO)Cc2ccc(OC)cc2)cc1` [Example 75, [(4-methoxy-benzyl)-[4-prop-2-ynyloxy-benzenesulfonyl]-amino]-N-hydroxy-acetamide]: 7.16.
In the case of `C=CCCOc1ccc(S(=O)(=O)N(CC(=O)NO)Cc2ccc(N3CCOCC3)cc2)cc1` [Example 81, 2-[(4-But-3-enyloxy-benzenesulfonyl)-(4-morpholin-4-yl-benzyl)-amino]-N-hydroxy-acetamide-hydrochloride], the pIC50 was 5.37.
As for `O=C(CN(Cc1ccc(-n2cncn2)cc1)S(=O)(=O)c1ccc(OCCC2CC2)cc1)NO` [Example 82a], the pIC50 is 5.38.
On to `C=CCCOc1ccc(S(=O)(=O)N(CC(=O)NO)Cc2ccc(N3CCCC3)cc2)cc1` [Example 84a, 2-[(4-But-3-enyloxy-benzenesulfonyl)-(4-(pyrrolidin-1-yl)-benzyl)-amino]-N-hydroxyacetamide-hydrochloride], for which the pIC50 is 5.26.
As to `COc1ccc(CN(CC(=O)NO)S(=O)(=O)c2ccc(OCCCCl)cc2)cc1` [Example 68, 2-{[4-(3-chloro-propoxy)-benzenesulfonyl]-(4-methoxy-benzyl)amino}-N-hydroxy-acetamide], the negative logarithm of the IC50 (pIC50) is 6.21.
The same measure, in the same setting: in the case of `C=CCCOc1ccc(S(=O)(=O)N(CC(=O)NO)Cc2cccc(F)n2)cc1` [Example 83a, 2-([4-But-3-enyloxy-benzenesulfonyl]-(6-fluoro-pyridine-2-yl)methyl-amino)-N-hydroxyacetamide] it was 5.43; in that of `C=CCCOc1ccc(S(=O)(=O)N(CC(=O)NO)Cc2ccc(-n3cncn3)cc2)cc1` [Example 79, 2-[(4-but-3-enyloxy-benzenesulfonyl)-(4-[1,2,4]triazol-1-yl-benzyl)-amino]-N-hydroxy-acetamide-hydrochloride salt], 5.23.

A further test concerns B16-F10 melanoma cells. The test can be described thus: B16-F10 melanoma experimental metastasis model, lung tumor nodules. The conditions noted are these: mice, tumor cells i.v.; p.o. 120 mg/kg/dosing; lungs on day 14. In kind it is in vivo, BDF1 mice. The procedure: The B16-F10 melanoma experimental metastasis model was studied following the method of Fidler. Cells were harvested by trypsinization and washed once with serum-containing medium and three times with cold PBS and then kept on ice. Mice were injected in the tail vein with a suspension of tumor cells (2×10^5 cells/0.1 ml of PBS). Animals were dosed with compounds p.o. at −1 hr, +5 hrs, 23 hrs and 29 hrs relative to the time of the cell injection at the first two days (day 0, 1). After that the animals were dosed once a day in the morning. Compounds were administered as a suspension in 1% carboxymethyl cellulose (Wako, Japan) at a dose of 120 mg/kg/dosing. Vehicle alone was administered to the control group. On day 14, the lung of the mice were removed after sacrificing the animals and the numbers of the tumor nodules were counted manually after fixing with Bouin's solution (2% picric acid in destilled water:10% formaldehyde neutral buffer solution:acetic acid=15:5:1). In this test a decrease in the number of tumor nodules of 47% compared to the vehicle alone was determined for the compound of Example 68.
`COc1ccc(CN(CC(=O)NO)S(=O)(=O)c2ccc(OCCCCl)cc2)cc1` [Example 68, 2-{[4-(3-chloro-propoxy)-benzenesulfonyl]-(4-methoxy-benzyl)amino}-N-hydroxy-acetamide]: the “decrease in the number of tumor nodules compared to the vehicle alone” value worked out at 47%.
